The text below walks through data of patent US10344287B2, “Recombinant microorganism producing quinolinic acid and method for producing quinolinic acid using same” (priority 2014, dated 2019).

Holding throughout (type): cell-based, E. coli
Experiment [1] has as its system W3110-ΔnadCΔkefA with pPro-nadB_pCJ1-nadA and pCL1920. Nature of the experiment: Sensitivity to quinolinic acid, kefA-deficient strain. The procedure:
(§1) First, to attenuate growth and development in the production strains, it was confirmed whether the addition of 13 g/L of quinolinic acid, in which KOH was titrated to a 7.0 pH, had influence or not. That is, a single colony of the strain producing quinolinic acid was inoculated in 25 mL of a LB+1% glucose broth (10 g/L of yeast extract, 5 g/L of NaCl, 10 g/L of tryptone, […] of kanamycin, and 10 g/L of glucose) by 1 platinum loop, and then, incubated with 250 rpm at 33° C. for 16 to 24 hours. Then, the OD600, the glucose consumption, and the residual quinolinic acid of the strain were measured.
(§2) To figure out whether the KefA membrane protein influenced the introduction of quinolinic acid, under the same method as Example 2-4(1), the kefA gene-deficient strain and the kefA gene-enhanced strain were subjected to evaluation of sensitivity to quinolinic acid.

Experiment [2] deals with W3110-ΔnadC with pPro-nadB_pCJ1-nadA and pCL_PrhtB-kefA. Nature of the experiment: Sensitivity to quinolinic acid, kefA-enhanced strain. The procedure: as §1
The kefA gene obtained through PCR procedures was recovered through agarose gel elution, and then, was treated with restriction enzymes EcoRV and HindIII. Afterwards, the kefA gene was subjected to ligation into a pCL1920_pRhtB vector treated with restriction enzymes EcoRV and HindIII, leading to the expression of the kefA gene linked to a pRhtB promoter. The vector prepared therefrom was named a pCL_pRhtB-kefA vector.
as §2

The subject of experiment [3] is MG1655-ΔnadC with pPro-nadB_pCJ1-nadA. Nature of the experiment: Sensitivity to quinolinic acid of strain producing quinolinic acid (growth in LB+1% glucose broth). As to conditions: 33° C., 16 to 24 hours. On the procedure:
as §1

Experiment [4] concerns W3110-ΔnadC with pPro-nadB_pCJ1-nadA. The description is as above. The procedure: as §1
In experiment [5] the test system is W3110-ΔnadC with pPro-nadB_pCJ1-nadA and pCL1920. Nature of the experiment: Sensitivity to quinolinic acid, control strain. The note with it: 13 g/L quinolinic acid in medium. On the procedure:
as §1, §2

Where [6] appears, read: 13 g/L quinolinic acid in medium.

Regarding `O=C(O)c1cccnc1C(=O)O` [quinolinic acid, 2,3-pyridine-dicarboxylic acid], the Glucose consumption in experiment [1] (setting [6]) is 8.0 g/L; in experiment [2] (setting [6]), 3.2 g/L; in experiment [3] (13 g/L of quinolinic acid in medium) it was 6.0 g/L; in experiment [4] (13 g/L of quinolinic acid in medium, 33° C., 16 to 24 hours), 6.0 g/L; in experiment [5], 6.2 g/L. Moreover, the OD600 in experiment [1] (setting [6]) was 8.2; in experiment [2] (setting [6]) it was 2.1; in experiment [3] (13 g/L of quinolinic acid in medium (pH 7.0 with KOH)), 4.5; in experiment [4] (13 g/L of quinolinic acid in medium (pH 7.0 with KOH), 33° C., 16 to 24 hours) it was 4.9; in experiment [5], 5.0. Moreover, the “growth and development and glucose consumption speed compared to control strain” value in experiment [1] (quinolinic acid additionally added to the medium, kefA-deficient strain versus control strain) was “up to 110%”; in experiment [2] (quinolinic acid additionally added to the medium, kefA-enhanced strain versus control strain), 50%. Also, the “growth and development and glucose-consumption speed, decreased to” value in experiment [4] (quinolinic acid additionally added to the medium (13 g/L) versus 0 g/L, strains of Table 5) amounted to 40%.
